What was measured:
rats [1] = conditions: sodium lactate infusion and CO2 challenge models; cited from earlier work
rats [2] = conditions: cited from earlier work
rats [3] = conditions: cited from earlier work; remark: listed apart in the source
rats [4] = conditions: intraperitoneal administration; cited from earlier work
Human OX1 receptor [5] = molecular target: T1, Human OX1 receptor (Homo sapiens (Human), UniProt O43613); assay: [3H]-radioligand binding assay, OX1; conditions: competition binding, membranes of SF21 cells, Ki by Cheng-Prusoff
T1 sequence (O43613 whole entry): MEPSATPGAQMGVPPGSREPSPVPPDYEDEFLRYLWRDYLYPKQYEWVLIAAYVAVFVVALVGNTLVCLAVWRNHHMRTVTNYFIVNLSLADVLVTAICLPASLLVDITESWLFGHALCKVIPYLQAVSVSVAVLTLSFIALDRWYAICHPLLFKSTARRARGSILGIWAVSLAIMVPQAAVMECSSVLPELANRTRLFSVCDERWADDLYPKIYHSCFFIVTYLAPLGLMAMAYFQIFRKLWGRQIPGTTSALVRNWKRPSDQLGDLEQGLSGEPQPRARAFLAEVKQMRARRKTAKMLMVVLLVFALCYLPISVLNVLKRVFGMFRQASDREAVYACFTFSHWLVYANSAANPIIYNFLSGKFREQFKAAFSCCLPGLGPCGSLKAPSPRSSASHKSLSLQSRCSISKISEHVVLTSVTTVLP
Source text: (§1) Cloning, Baculovirus generation, large-scale infection of SF21 cells and membrane preparation. Human OX1 or OX2 receptor were cloned into Invitrogen's (ThermoFisher Scientific, UK) Bac-to-Bac Baculovirus Expression System. P0 baculovirus was generated by transfecting SF9 cells with bacmid DNA using Cellfectin® II transfection reagent (ThermoFisher Scientific, UK, Catalog number 10362-100). Following P0 generation P1 virus was then generated ready for large scale infection and membrane preparation. SF21 cells were grown in expression medium ESF921 (Expression Systems, USA, catalog number 96-001-01) supplemented with 10% heat-inactivated FBS and 1% Pen/Strep and were infected at a cell density of 2.5×10^6 cells/mL and a multiplicity of infection of 1.0 for both human OX1R and OX2R. Incubation was carried out at over 48 h in a shaking incubator set at 27° C. The cell culture was then centrifuged at 2,500 rcf for 10 min at 4° C. The pellets were resuspended in cold PBS supplemented with Roche's Complete EDTA-free protease inhibitor cocktail tablets (Roche Applied Sciences, catalog number 05056489001), 1 mM PMSF and 1 mM EDTA. The resuspended cell paste was then centrifuged at 3,273 rcf for 12 min at 4° C. The supernatant was discarded and the pellet frozen at −80° C. The cell pellet from a 4 L culture was resuspended in buffer containing 50 mM HEPES pH 7.5, 150 mM NaCl, 8 Roche EDTA-Free protease inhibitor cocktail tablets and 1 mM PMSF. The suspension was left stirring at rt for 1 h and then homogenised for 90 s at 9,500 rpm using a VDI 25 (VWR, USA) homogeniser. The cells were then lysed using a Microfluidiser processor M-110L Pneumatic (Microfluidics, USA) at 60 PSI and membranes collected by ultracentrifugation at 204.7 k×g for 1 h. The supernatant was discarded and the pellet was resuspended and homogenised in 90 s at 9,500 rpm in 50 mL (25 mL for each 2 L culture) of buffer containing 50 mM Hepes pH 7.5, 150 mM NaCl, 3 Roche EDTA-free protease inhibitor cocktail tablets and 1 mM PMSF. The resulting membranes were then stored at −80° C.
(§2) [^3H]-radioligand binding assay. After thawing, membrane homogenates were resuspended in the binding buffer (8.5 mM HEPES, pH 7.4, 1.3 mM CaCl2, 1.2 mM MgSO4, 118 mM NaCl, 4.7 mM KCl, 4 mM NaHCO3, 1.2 mM KH2PO4, 11 mM glucose) to a final assay concentration of 6.4 μg (OX1) or 1.4 μg (OX2) protein per well. Saturation isotherms were determined by the addition of various concentrations (0-30 nM) of [^3H]-4-(2,6-difluoro-4-methoxybenzyl)-2-(5,6-dimethoxypyridin-3-yl)-2H-1,2,4-benzothiadiazin-3(4H)-one 1,1-dioxide (Christopher et al, MedChemComm., 2015, 6, 947-955) in a total reaction volume of 250 μL for 90 min at rt. At the end of the incubation, membranes were filtered onto a 96-well GF/B filter pre-incubated with 0.5% polyethylenimine, with a Tomtec cell harvester and washed 5 times with 0.5 mL distilled water. Non-specific binding (NSB) was measured in the presence of 3.33 μM [4-(5-chloro-1,3-benzoxazol-2-yl)-7-methyl-1,4-diazepan-1-yl][5-methyl-2-(2H-1,2,3-triazol-2-yl)phenyl]methanone (Wertz et al, Angew. Chem. Int. Ed., 2011, 50, 11511-11515). Radioactivity on the filter was counted (1 min) on a Microbeta radiometric plate counter (Perkin Elmer) after addition of 50 μL of scintillation fluid (LabLogic: Part #SG-BXX-14). […] IC50 values were derived from the inhibition curve and the equilibrium dissociation constant (Ki) values were calculated using the Cheng-Prusoff equation.

Human OX2 receptor [6] = molecular target: T2, Human OX2 receptor (Homo sapiens (Human), UniProt O43614); assay: IPone accumulation assay, CHO cells expressing OX2; type: cell-based; conditions: antagonism of orexin A (EC80 40 nM)-induced inositol phosphate turnover, read-out: fpKb average OX2 (converted)
T2 sequence (O43614 whole entry): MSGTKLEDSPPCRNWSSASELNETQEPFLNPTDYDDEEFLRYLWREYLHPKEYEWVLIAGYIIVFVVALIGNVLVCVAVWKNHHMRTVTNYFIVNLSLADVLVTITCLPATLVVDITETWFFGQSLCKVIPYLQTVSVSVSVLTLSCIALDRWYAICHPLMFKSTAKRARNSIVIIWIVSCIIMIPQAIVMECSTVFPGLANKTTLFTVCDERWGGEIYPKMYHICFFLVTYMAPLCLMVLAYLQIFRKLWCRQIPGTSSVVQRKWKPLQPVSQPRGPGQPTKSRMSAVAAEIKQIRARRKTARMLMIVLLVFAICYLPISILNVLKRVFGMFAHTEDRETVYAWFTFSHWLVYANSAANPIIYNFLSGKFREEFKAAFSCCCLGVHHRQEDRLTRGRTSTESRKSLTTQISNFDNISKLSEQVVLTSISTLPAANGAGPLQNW
Method: Generation of CHO stable cell lines expressing the human OX1R and OX2R. Stable cell lines for the human OX1R and OX2R receptors were generated through the transfection of CHO cells using the transfection reagent Genejuice (Novagen number 70967) and cDNA coding for either the human OX1R or OX2R. Cells were cultured in Sigma Nutrient Mixture F-12 Ham media (catalog number N6658) supplemented with 10% heat-inactivated FBS. Forty-eight hours after transfection, cells were harvested and placed under geneticin selection by culturing in Sigma Nutrient Mixture F-12 Ham media supplemented with 10% heat-inactivated FBS and geneticin (ThermoFisher Catalog number: 10131035). Selection of the final stable clone for each receptor was made on the basis of receptor expression, assay signal to noise and robustness though increasing passage. Selected clones for the human OX1R and OX2R were then frozen down into liquid nitrogen using Cell Freezing Medium-DMSO (Sigma-Aldrich catalog number: C6164). IPone accumulation assay. A CHO cell line stably expressing either human OX1 or OX2 receptor was used with the IPone HTRF assay kit (CisBio: Part #62[…]) to measure receptor activation. The assay was optimised to measure the ability (potency; fpKb) of antagonists to reduce agonist (orexin A)-induced inositol phosphate turnover. Briefly, cells were plated onto half area 96-well white walled plates at a density of 12,500 cells/well. Sixteen hours post-plating cell growth media was replaced with antagonist concentration-response curve diluted in stimulation buffer (supplied with the kit). Cells were incubated in a humidified incubator (37° C.) for 30 min before an EC80 challenge concentration ( 20 nM (OX1) and 40 nM (OX2)) of orexin A (Tocris catalogue number 1455). After 30 min stimulation in a humidified incubator (37° C.) the assay was terminated by the addition of detection mixture as per manufacturer's instructions. The concentration of compound which reduced orexin-A stimulated turnover of inositol phosphates by 50% (IC50) was calculated by fitting to a four parameter sigmoidal dose response curve. The IC50 values were converted to fpKB values using the orexin A pEC50 value estimated on each plate as well as the challenge concentration interpolated from the orexin A control curve.

Human OX1 receptor [7] = molecular target: T1, Human OX1 receptor; assay: IPone accumulation assay, CHO cells expressing OX1; type: cell-based; conditions: antagonism of orexin A (EC80 ~20 nM)-induced inositol phosphate turnover, read-out: fpKb average OX1 (converted)
Method: Generation of CHO stable cell lines expressing the human OX1R and OX2R. Stable cell lines for the human OX1R and OX2R receptors were generated through the transfection of CHO cells using the transfection reagent Genejuice (Novagen number 70967) and cDNA coding for either the human OX1R or OX2R. Cells were cultured in Sigma Nutrient Mixture F-12 Ham media (catalog number N6658) supplemented with 10% heat-inactivated FBS. Forty-eight hours after transfection, cells were harvested and placed under geneticin selection by culturing in Sigma Nutrient Mixture F-12 Ham media supplemented with 10% heat-inactivated FBS and geneticin (ThermoFisher Catalog number: 10131035). Selection of the final stable clone for each receptor was made on the basis of receptor expression, assay signal to noise and robustness though increasing passage. Selected clones for the human OX1R and OX2R were then frozen down into liquid nitrogen using Cell Freezing Medium-DMSO (Sigma-Aldrich catalog number: C6164).
IPone accumulation assay. A CHO cell line stably expressing either human OX1 or OX2 receptor was used with the IPone HTRF assay kit (CisBio: Part #62IPAPEJ) to measure receptor activation. The assay was optimised to measure the ability (potency; fpKb) of antagonists to reduce agonist (orexin A)-induced inositol phosphate turnover. Briefly, cells were plated onto half area 96-well white walled plates at a density of 12,500 cells/well. Sixteen hours post-plating cell growth media was replaced with antagonist concentration-response curve diluted in stimulation buffer (supplied with the kit). Cells were incubated in a humidified incubator (37° C.) for 30 min before an EC80 challenge concentration (˜20 nM (OX1) and 40 nM (OX2)) of orexin A (Tocris catalogue number 1455). After 30 min stimulation in a humidified incubator (37° C.) the assay was terminated by the addition of detection mixture as per manufacturer's instructions. The concentration of compound which reduced orexin-A stimulated turnover of inositol phosphates by 50% (IC50) was calculated by fitting to a four parameter sigmoidal dose response curve. The IC50 values were converted to fpKB values using the orexin A pEC50 value estimated on each plate as well as the challenge concentration interpolated from the orexin A control curve.

Human OX2 receptor [8] = molecular target: T2, Human OX2 receptor; assay: [3H]-radioligand binding assay, OX2; conditions: competition binding, membranes of SF21 cells, Ki by Cheng-Prusoff
Source text: as §1, §2

O=C(c1cccc(F)c1-c1ncccn1)N1[C@@H]2CC[C@H]1[C@H](Nc1cnc(C(F)(F)F)cn1)C2 [JNJ-54717793]
panic-like behaviours and cardiovascular responses (rats [1]): attenuated

Cc1nc2ccc(NC(=O)Nc3ccnc4cccnc34)cc2o1 [SB-334867]
nicotine self-administration (rats [2]): decreases | alcohol self-administration (rats [3]): decreases | opiate withdrawal symptoms (rats [4]): significantly reduce

O=C(N[C@H]1CCC[C@@H]1COc1ccc(F)cc1)c1nc(NCC(F)F)ccc1-n1nccn1 [Example 19, 6-(2,2-difluoroethylamino)-N-[(1S,2S)-2-[(4-fluorophenoxy)methyl]cyclopentyl]-3-(triazol-2-yl)pyridine-2-carboxamide]
pKi average OX1 (Human OX1 receptor [5]): 8.8 | Kb (Human OX2 receptor [6]): > 501 nM | Kb (Human OX1 receptor [7]): 15.8 nM | pKi average OX2 (Human OX2 receptor [8]): 6.6

CC(=O)Nc1ccc(-c2ncccn2)c(C(=O)N[C@H]2CCC[C@@H]2COc2ccc(Cl)cc2)n1 [Example 15, 6-acetamido-N-[(1S,2S)-2-[(4-chlorophenoxy)methyl]cyclopentyl]-3-pyrimidin-2-yl-pyridine-2-carboxamide]
pKi average OX1 (Human OX1 receptor [5]): 8.7 | Kb (Human OX2 receptor [6]): > 631 nM | Kb (Human OX1 receptor [7]): 3.98 nM | pKi average OX2 (Human OX2 receptor [8]): 6.2

CC(=O)Nc1ccc(-n2nccn2)c(C(=O)N[C@H]2CCC[C@@H]2COc2ccc(F)cc2F)n1 [Example 17, 6-acetamido-N-[(1S,2S)-2-[(2,4-difluorophenoxy)methyl]cyclopentyl]-3-(triazol-2-yl)pyridine-2-carboxamide]
pKi average OX1 (Human OX1 receptor [5]): 9.1 | Kb (Human OX2 receptor [6]): > 63.1 nM | Kb (Human OX1 receptor [7]): 50.1 nM | pKi average OX2 (Human OX2 receptor [8]): 5.4

O=C(N[C@H]1CCC[C@@H]1COc1ccc(F)cc1)c1nc(NCCO)ccc1-n1nccn1 [Example 20, N-[(1S,2S)-2-[(4-fluorophenoxy)methyl]cyclopentyl]-6-(2-hydroxyethylamino)-3-(triazol-2-yl)pyridine-2-carboxamide]
pKi average OX1 (Human OX1 receptor [5]): 8.4 | Kb (Human OX2 receptor [6]): > 501 nM | Kb (Human OX1 receptor [7]): 7.94 nM | pKi average OX2 (Human OX2 receptor [8]): 5.8

CC(=O)Nc1ccc(-n2nccn2)c(C(=O)N(C(C)C)[C@H]2CCC[C@@H]2COc2ccc(F)cc2)n1 [Example 7, 6-acetamido-N-[(1S,2S)-2-[(4-fluorophenoxy)methyl]cyclopentyl]-N-isopropyl-3-(triazol-2-yl)pyridine-2-carboxamide]
pKi average OX1 (Human OX1 receptor [5]): 8.1 | Kb (Human OX2 receptor [6]): > 794 nM | Kb (Human OX1 receptor [7]): 25.1 nM | pKi average OX2 (Human OX2 receptor [8]): <5.3
